This is an account of results in PubChem BioAssay AID1918931 (Molecular Pharmacology Branch, DTP, NCI, 2023).

The structures appear in SMILES notation. Several values for one entry are separate records, joined by “and”; a condition that tells them apart may be missing. Equal entries are not always repeated.

The assay deals with 138582-337-R-J1-PDC complex spheroid viability. The experiment in a line: Anticancer human tumor 138582-337-R-J1-PDC patient-derived Merkel cell tumor cell line growth inhibition. The note with it: for viability, T/C: stronger effect = lower value. The source says: Multicellular complex tumor spheroid response to LSD1 Inhibitor Iadademstat in combination with a variety of drugs and investigational agents in selected tumor cell lines
The current study was undertaken to assess response to LSD1 inhibitors in combination with standard-of-care drugs and investigational agents in solid tumor complex spheroid models as well as in the K-562 leukemia. Complex spheroids include a stromal component modeled by human endothelial cells (HUVEC) and fibroblasts modeled by human mesenchymal stem cells (MSCs). The concentration ranges selected for each drug and investigational agent were based upon clinically achievable concentrations if the clinical Cmax of the agent was known.
Compounds. The drugs and investigational agents used in this study are listed on Table 1. All of the agents used, including staurosporine (NSC755774) and gemcitabine (NSC613327), were obtained from the Developmental Therapeutics Program, NCI. FDA-approved anticancer drugs are available from the NCI at http://dtp.nci.nih.gov/branches/dscb/oncology_drugset_explanation.html. Drugs and investigational agents were >95% pure by proton nuclear magnetic resonance (NMR) and liquid chromatography/mass spectrometry (LC/MS). Stock solutions were prepared at 400x in DMSO, stored at -70 degrees C, and diluted in fresh medium prior to their use. The final concentration of DMSO in cell culture wells never exceeded 0.25% (v/v). The FDA-approved anticancer drug set is available from the Developmental Therapeutics Program at https://dtp.cancer.gov/organization/dscb/obtaining/available_plates.htm. All drugs and investigational agents were tested over a range starting from a high concentration at or near the clinical Cmax and decreasing in half-log increments. If the clinical Cmax for an agent had not been determined, the highest concentration tested was 10 microM.
Cell Lines. The patient-derived cancer cell (PDC) lines: 292921-168-R-J2-PDC, K24384-001-R-PDC, and 521955-158-R2-J5-PDC pancreatic carcinomas, 556581-035-R-J1 ovarian carcinoma, 324938-238-R-J1-PDC, 855422-203-R-J1-PDC and 883617-216-R-J1-PDC urothelial bladder carcinomas, 743489-274-T-PDC renal cell carcinoma, 138582-R-J1 Merkel cell tumor, K60290-347-R-J1 and K57222-313-R-J1-PDC glioblastomas, 653999-131-R-J2-PDC, LG0703-F948-PDC, and 349418-098-R-PDC non-small cell lung carcinomas, 885512-296-R-J2-PDC, 171881-019-R-J1-PDC breast carcinomas and 186277-243-T-J2-PDC and 233499-124-R-J2-PDC colon carcinomas were obtained from the NCI Patient-Derived Models Repository (PDMR, https://pdmr.cancer.gov). The established cell lines NCI/ADR-RES (RRID:CVCL_14520 and OVCAR-5 (RRID:CVCL_1628) ovarian carcinomas, 786-O (RRID:CVCL_1051) and A498 (RRID:CVCL_A498) renal cell carcinoma, NCI-H211 (ATCC, cat. CRL-5824; RRID:CVCL_1529), NCI-H196 (ATCC, cat. CRL-5823, RRID:CVCL_1509), SW 1271 (ATCC, cat. CRL-2177, RRID:CVCL_1716) and NCI-H1876 (ATCC, cat. CRL-5902, RRID:CVCL_1503) small cell lung carcinomas, MDA-MB-231 (RRID:CVCL_0062) and MDA-MB-468 (RRID:CVCL_0419)breast carcinomas (10-12). Pooled donor human umbilical vein endothelial cells (HUVEC, Lonza, cat. CC-2519) and human mesenchymal stem cells (hMSC, Lonza, cat. PT-2501) were purchased from Lonza (Walkersville, MD).
Cell Culture. All cells were maintained in an incubator at 37 degrees C and 5% CO2 with 95% humidity. The PDC lines were cultured according to standard operating procedures established by the NCI PDMR (https://pdmr.cancer.gov). Briefly all PDCs were thawed and cultured in Matrigel-coated flasks prepared with a working solution of 1X Ham's F-12 nutrient mix, without supplementation (Invitrogen, Waltham, MA, cat. 11765054), 100 U/mL penicillin-streptomycin (Invitrogen, cat. 15140122), and 2.5% Matrigel (Corning Inc., Corning, NY, cat. 354248) for the first three passages. […]

Where [1] appears, read: curve of first compound, second compound 0.1 µM.
The mark [2] stands for this setting: curve of first compound, second compound 0.316 µM.
[3] abbreviates: curve of first compound, second compound 1 µM.
Where [4] appears, read: curve of first compound, second compound 3.16 µM.
[5] abbreviates: curve of first compound, second compound 10 µM.
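Further: spheroids exposed to agents for 7 days.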

For orientation: viability, T/C means the result in the treated group divided by that in the control group, in per cent. One may read the IC50 as the concentration that gives 50% inhibition. Turning to `CC(C)c1c(-c2ccccc2)nc2c(C#N)c[nH]n2c1=O`, the viability, T/C is 106% and 89.1% (compound 0.0316 µM); 92.4% and 85.5% (compound 0.1 µM); 92.8% and 89.8% (compound 0.316 µM); 97.1% and 71.4% (compound 1 µM); 84.7% and 52.7% (compound 3.16 µM); 85.2% and 40.5% (compound 10 µM). The IC50 (curve of compound) was > 10000 nM and 3700 nM.
Take `COc1ccc([C@@H](O)c2cc(-c3ncnc4cc(N5CCOCC5)ccc34)c(F)cc2Cl)nn1`: the viability, T/C is, setting by setting: (compound 0.0316 µM) 92.5% and 76.9%; (compound 0.1 µM) 79.5% and 91.7%; (compound 0.316 µM) 64.9% and 66.6%; (compound 1 µM) 50.7% and 71.1%; (compound 3.16 µM) 45.5% and 46%; (compound 10 µM) 27.3% and 20.6%. The IC50 (curve of compound) is 1340 nM and 2680 nM.
Consider `NC1CC1c1ccc(-c2cccc(O)c2)cc1` (stereo not drawn), for which the viability, T/C (compound 0.1 µM) was 75.3%. Moreover, the IC50 (compound alone, run of 02/01/2022) is over 10000 nM.
Turning to `NC1CCC(NC2CC2c2ccccc2)CC1` (stereo not drawn), the viability, T/C (compound 0.316 µM) was 95.6% and 95.3%. Also, under “compound alone, run of 01/24/2022”, the IC50 is over 10000 nM.
As to `COc1cc(C2c3cc4c(cc3C(OC3OC5COC(C)OC5C(O)C3O)C3COC(=O)C23)OCO4)cc(OC)c1O` (stereo not drawn) + NC1CC1c1ccc(-c2cccc(O)c2)cc1, the IC50 reads like this: under setting [1], 762 nM; under setting [2], 690 nM; under setting [3], 559 nM; under setting [4], 767 nM; under setting [5], 265 nM. The viability, T/C is, setting by setting: (second compound 0.1 µM, first compound 0.00949 µM) 60.8%; (second compound 0.1 µM, first compound 0.03 µM) 72.3%; (second compound 0.1 µM, first compound 0.0949 µM) 63%; (second compound 0.1 µM, first compound 0.3 µM) 48.5%; (second compound 0.1 µM, first compound 0.949 µM) 52.9%; (second compound 0.1 µM, first compound 3 µM) 36.7%. Also, the viability, T/C is, setting by setting: (second compound 0.316 µM, first compound 0.00949 µM) 67.1%; (second compound 0.316 µM, first compound 0.03 µM) 69.8%; (second compound 0.316 µM, first compound 0.0949 µM) 63.1%; (second compound 0.316 µM, first compound 0.3 µM) 51.1%; (second compound 0.316 µM, first compound 0.949 µM) 52.3%; (second compound 0.316 µM, first compound 3 µM) 29.9%. The viability, T/C (second compound 1 µM, first compound 0.00949 µM) is 76.8%; the viability, T/C (second compound 1 µM, first compound 0.03 µM) was 75.9%; the viability, T/C (second compound 1 µM, first compound 0.0949 µM) is 60.6%; the viability, T/C (second compound 1 µM, first compound 0.3 µM) is 53.2%; the viability, T/C (second compound 1 µM, first compound 0.949 µM) is 45%; the viability, T/C (second compound 1 µM, first compound 3 µM) was 40.7%. Further, the viability, T/C is 69.7% (second compound 3.16 µM, first compound 0.00949 µM); 75.9% (second compound 3.16 µM, first compound 0.03 µM); 65.9% (second compound 3.16 µM, first compound 0.0949 µM); 51.8% (second compound 3.16 µM, first compound 0.3 µM); 53.1% (second compound 3.16 µM, first compound 0.949 µM); 31.6% (second compound 3.16 µM, first compound 3 µM). Further, the viability, T/C (second compound 10 µM, first compound 0.00949 µM) is 71.2%; the viability, T/C (second compound 10 µM, first compound 0.03 µM) was 77.3%; the viability, T/C (second compound 10 µM, first compound 0.0949 µM) is 58.4%; the viability, T/C (second compound 10 µM, first compound 0.3 µM) is 50.1%; the viability, T/C (second compound 10 µM, first compound 0.949 µM) is 41.4%; the viability, T/C (second compound 10 µM, first compound 3 µM) is 37%.
Regarding `Nc1ncn(C2CC(O)C(CO)O2)c(=O)n1` (stereo not drawn) + NC1CC1c1ccc(-c2cccc(O)c2)cc1, the IC50 reads like this: under setting [1], over 1000 nM; under setting [2], over 1000 nM; under setting [3], over 1000 nM; under setting [4], over 1000 nM; under setting [5], over 1000 nM. Moreover, the viability, T/C is, setting by setting: (second compound 0.1 µM, first compound 0.00316 µM) 74%; (second compound 0.1 µM, first compound 0.01 µM) 92%; (second compound 0.1 µM, first compound 0.0316 µM) 94.5%; (second compound 0.1 µM, first compound 0.1 µM) 85.7%; (second compound 0.1 µM, first compound 0.316 µM) 77.8%; (second compound 0.1 µM, first compound 1 µM) 75.3%. For the same compound, the viability, T/C reads like this: (second compound 0.316 µM, first compound 0.00316 µM) 82.3%; (second compound 0.316 µM, first compound 0.01 µM) 98.7%; (second compound 0.316 µM, first compound 0.0316 µM) 108%; (second compound 0.316 µM, first compound 0.1 µM) 85.7%; (second compound 0.316 µM, first compound 0.316 µM) 85.3%; (second compound 0.316 µM, first compound 1 µM) 76.6%. Moreover, the viability, T/C was 75.8% (second compound 1 µM, first compound 0.00316 µM); 109% (second compound 1 µM, first compound 0.01 µM); 98.1% (second compound 1 µM, first compound 0.0316 µM); 88.5% (second compound 1 µM, first compound 0.1 µM); 83% (second compound 1 µM, first compound 0.316 µM); 84.9% (second compound 1 µM, first compound 1 µM). The viability, T/C was 67.7% (second compound 3.16 µM, first compound 0.00316 µM); 119% (second compound 3.16 µM, first compound 0.01 µM); 113% (second compound 3.16 µM, first compound 0.0316 µM); 89.6% (second compound 3.16 µM, first compound 0.1 µM); 87.8% (second compound 3.16 µM, first compound 0.316 µM); 80.1% (second compound 3.16 µM, first compound 1 µM). Further, the viability, T/C runs as follows: (second compound 10 µM, first compound 0.00316 µM) 85.8%; (second compound 10 µM, first compound 0.01 µM) 99.2%; (second compound 10 µM, first compound 0.0316 µM) 118%; (second compound 10 µM, first compound 0.1 µM) 106%; (second compound 10 µM, first compound 0.316 µM) 113%; (second compound 10 µM, first compound 1 µM) 88.4%.
